Tested on: Balb/c mice
Test: Hot-Plate Test of Balb/c mice vs. imipramine, i.p. & p.o. (Example 2)
Format: in vivo
Details: 5 mg/kg i.p. at t=0, group Average
Method: 14-week old male Balb/c mice (non-naive) were divided into four groups of seven mice per group and treated at t=0 as detailed in Table 3 below:
Compound 18 stock comprises 9.4 mg Compound 18, 0.2 mL DMSO and 0.8 mL saline.
As in Example 1 above, the response latencies of the mice in the respective groups were tested using a hot-plate at t=−60 mins., 0 mins., 60 mins., 120 mins., 180 mins., 240 mins., 300 mins. and 360 mins.

Work on CN(C)CCCN1c2ccccc2CCc2ccccc21 [Imipramine, imipramine] yielded a hot-plate response latency (tested at t=0 mins.) of 13.7 s, a hot-plate response latency (tested at t=60 mins.) of 14.9 s and a hot-plate response latency (tested at t=120 mins.) of 14.6 s. It also gave a hot-plate response latency (tested at t=240 mins.) of 22.9 s and a hot-plate response latency (tested at t=300 mins.) of 23.1 s.

From patent US9199917B2, “N-substituted benzenepropanamide or benzenepropenamide derivatives for use in the treatment of pain and inflammation” (Novaremed Limited, priority 2008, dated 2015)
